One data set has as its system common bacteria. As to conditions: typical value; cited from earlier work.
Data set [1] can be described thus: Activity of gel-based therapeutics after short-term storage. The data set is classed as physicochemical. To be noted: 0.5% (agarose) hydrogel. From the text: According to Table 1, gel-therapeutic agent preparations comprising an antibiotic and a 0.5% (agarose) hydrogel may be stable for up to one week. Drugs dissolve passively into the gel and stay stable over time. In some embodiments, the gel-therapeutic agent preparation may further comprise saline. The gel may be biocompatible, meaning that it is structurally similar to the extracellular matrix in tissues. The gel may be flowable, allowing, for example, casting into a mold or injection via needle through a port. The loading of the […] agent preparation in the device may allow consistent and uniform contact with the skin even with patient movement, maintaining continuous delivery of the therapeutic agent to the underlying tissue. The gel-therapeutic agent preparation may prevent loss of the therapeutic agent in the event of a minor leak in the adhesive of the sealing portion of the device.

With `CN[C@H](CC(C)C)C(=O)N[C@H]1C(=O)N[C@@H](CC(N)=O)C(=O)N[C@H]2C(=O)N[C@H]3C(=O)N[C@H](C(=O)N[C@H](C(=O)O)c4cc(O)cc(O)c4-c4cc3ccc4O)[C@H](O)c3ccc(c(Cl)c3)Oc3cc2cc(c3O[C@@H]2O[C@H](CO)[C@@H](O)[C@H](O)[C@H]2O[C@H]2C[C@](C)(N)[C@H](O)[C@H](C)O2)Oc2ccc(cc2Cl)[C@H]1O` [vancomycin], the MIC entry with common bacteria was “around 2 micrograms per mL or cm^3”.
Consider Gentamicin, for which the Drug activity in data set [1] (after 3 days storage) is 2.41 µg/mL; in data set [1] (after 7 days storage), 2.04 µg/mL. Also, in the data set on common bacteria, the MIC result was “around 2 micrograms per mL or cm^3”.

Values taken from patent US20230079448A1, “DEVICES AND METHODS FOR NEGATIVE PRESSURE THERAPY” (APPLIED TISSUE TECHNOLOGIES LLC, priority 2020, published 2023).
